This is an account of results in US20250032625A1, “HETEROBIFUNCTIONAL MOLECULES AS TEAD INHIBITORS” (Merck Patent GmbH, priority 2021, published 2025).

The target of one test is TEAD1 in SK-HEP1 cells (Homo sapiens (Human), UniProt P28347). As to the kind of experiment: TEAD degradation in SK-HEP1 cell line (immunofluorescence). Format: cell-based. The procedure:
(§1) Degradation of TEAD isoform TEAD1 by exemplary compounds which has been determined at different time points in two different cell lines, SK-HEP1 and NCI-H226: For the assay, SK-HEP1 (ATCC HTB-52) and NCI-H226 (ATCC CRL-5826) cells were treated in duplicates with the test compounds in a 10-point dose, 1:3 dilution steps, with the top concentration starting at 30 uM (final concentration in assay). After either 16 or 24 hour incubation at 37° C., 95% rH, and 5% CO2, the cells were fixed with 4% PFA and TEAD1 levels were probed using immunofluorescence. The primary antibody used was Anti-TEF1 (BD, 610293) and the secondary antibody used was Alexa Fluor® 488 Goat Anti-Mouse IgG (H+L) (Molecular Probes, A-11001). Finally, the cell nuclei were co-stained by Hoechst 33258 (Invitrogen, H-3569) and imaged using a high content imager. The amount of TEAD degradation was determined by quantifying the fluorescence intensity levels of Anti-TEF1 in each individual cell per well. DC50 was calculated using curve fitting software Genedata Screener. Cell media: The SK-HEP1 cells were cultured in the following media: MEM, +10% FCS, +1× GlutaMAX, +100 μM NEAA, +10 mM HEPES, +0.5% Pen/Strep. The NCI-H226 cells were cultured in the following media: RPMI 1640, +10% FBS, +1× GlutaMAX, +10 mM HEPES, +0.5% Pen/Strep.

The next test concerns the target TEAD1 in NCI-H226 cells (Homo sapiens (Human), UniProt P28347). Nature of the test: TEAD degradation in NCI-H226 cell line (immunofluorescence). Format: cell-based. Here is the method: as §1
Setting [1] is: 24 h incubation, read-out: DC50 SK-HEP1 24 h.
Where [2] appears, read: 24 hours, ranges, read-out: DC50 SK-HEP1.
The mark [3] stands for this setting: 24 h incubation, read-out: DC50 NCI-H226 24 h.
Setting [4] is: 24 hours, ranges, read-out: DC50 NCI-H226.

Like-named read-outs stand apart in the source and are kept apart here. Some results are limits rather than exact numbers.

For orientation: DC50 means the midpoint of the concentration-degradation curve.

Sequence of TEAD1 in NCI-H226 cells (P28347 whole entry): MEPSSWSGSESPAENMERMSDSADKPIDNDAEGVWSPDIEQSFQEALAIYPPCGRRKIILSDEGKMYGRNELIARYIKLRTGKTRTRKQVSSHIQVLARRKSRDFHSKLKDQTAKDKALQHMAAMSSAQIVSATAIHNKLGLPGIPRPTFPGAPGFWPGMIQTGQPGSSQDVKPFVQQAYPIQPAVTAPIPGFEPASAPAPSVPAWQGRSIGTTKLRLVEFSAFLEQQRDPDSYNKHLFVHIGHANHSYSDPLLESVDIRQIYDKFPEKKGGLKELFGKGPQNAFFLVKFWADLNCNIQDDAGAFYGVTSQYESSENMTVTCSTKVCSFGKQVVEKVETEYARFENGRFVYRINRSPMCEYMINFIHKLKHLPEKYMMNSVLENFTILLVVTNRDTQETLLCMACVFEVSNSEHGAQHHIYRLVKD
Sequence of TEAD1 in SK-HEP1 cells (P28347 whole entry, canonical isoform): as the sequence (P28347 whole entry) above

Take `Cn1cc2c3cc(C(=O)NCCOCCOCCOCCOCCNc4cccc5c4C(=O)N(C4CCC(=O)NC4=O)C5=O)ccc3n(-c3ccc(C(F)(F)F)cc3)c2n1` (stereo not shown) [Compound 28, N-(14-{[2-(2,6-dioxopiperidin-3-yl)-1,3-dioxo-2,3-dihydro-1H-isoindol-4-yl]amino}-3,6,9,12-tetraoxatetradecan-1-yl)-2-methyl-8-[4-(trifluoromethyl)phenyl]-2H,8H-pyrazolo[3,4-b]indole-5-carboxamide]: the DC50 at TEAD1 in SK-HEP1 cells (setting [1]) is 70 nM; at TEAD1 in SK-HEP1 cells (setting [2]), less than 100 nM; at TEAD1 in NCI-H226 cells (setting [3]), 90 nM; at TEAD1 in NCI-H226 cells (setting [4]), less than 100 nM.

Regarding `Cn1cc2c3cc(C(=O)NCCOCCOCCOCCOCCNC(=O)COc4ccc5c(c4)CCCN5C(=O)CCl)ccc3n(-c3ccc(C(F)(F)F)cc3)c2n1` [Compound 31, 2-{[1-(2-chloroacetyl)-1,2,3,4-tetrahydroquinolin-6-yl]oxy}-N-[14-({2-methyl-8-[4-(trifluoromethyl)phenyl]-2H,8H-pyrazolo[3,4-b]indol-5-yl}formamido)-3,6,9,12-tetraoxatetradecan-1-yl]acetamide], the DC50 at TEAD1 in SK-HEP1 cells (setting [1]) is 3500 nM; at TEAD1 in SK-HEP1 cells (setting [2]) it was 3000 to 9000 nM; on TEAD1 in NCI-H226 cells (setting [3]) it was 10000 nM; at TEAD1 in NCI-H226 cells (setting [4]), 9000 to 30000 nM.

Take `Cc1ncsc1-c1ccc(CNC(=O)[C@@H]2C[C@@H](O)CN2C(=O)[C@@H](NC(=O)CCOCCC(=O)NCCOCCOCCNC(=O)c2ccc3c(c2)c2cn(C)nc2n3-c2ccc(C(F)(F)F)cc2)C(C)(C)C)cc1` [Compound 61, (2S,4R)-1-[(2S)-3,3-dimethyl-2-(3-{2-[(2-{2-[2-({2-methyl-8-[4-(trifluoro-methyl)phenyl]-2H,8H-pyrazolo[3,4-b]indol-5-yl}formamido)-ethoxy]ethoxy}ethyl)carbamoyl]ethoxy}propanamido)butanoyl]-4-hydroxy-N-{[4-(4-methyl-1,3-thiazol-5-yl)phenyl]methyl}pyrrolidine-2-carboxamide]: the DC50 on TEAD1 in SK-HEP1 cells (setting [2]) and at TEAD1 in NCI-H226 cells (setting [4]) was 3000 to 9000 nM in each case.

For `Cn1cc2c3cc(C(=O)NCCOCCOCCOCCOCCOCCNc4cccc5c4C(=O)N(C4CCC(=O)NC4=O)C5=O)ccc3n(-c3ccc(C(F)(F)F)cc3)c2n1` (stereo not shown) [Compound 47, N-(17-{[2-(2,6-dioxopiperidin-3-yl)-1,3-dioxo-2,3-dihydro-1H-isoindol-4-yl]amino}-3,6,9,12,15-pentaoxaheptadecan-1-yl)-2-methyl-8-[4-(trifluoro-methyl)phenyl]-2H,8H-pyrazolo[3,4-b]indole-5-carboxamide], the DC50 at TEAD1 in SK-HEP1 cells (setting [2]) and at TEAD1 in NCI-H226 cells (setting [4]) was less than 100 nM throughout.

In the case of `Cc1ncsc1-c1ccc(CNC(=O)[C@@H]2C[C@@H](O)CN2C(=O)[C@@H](NC(=O)COCCOCCOCCNC(=O)c2ccc3c(c2)c2cn(C)nc2n3-c2ccc(C(F)(F)F)cc2)C(C)(C)C)cc1` [Compound 52], the DC50 at TEAD1 in SK-HEP1 cells (setting [2]) and on TEAD1 in NCI-H226 cells (setting [4]) was 100 to 1000 nM throughout.

`Cc1ncsc1-c1ccc([C@H](C)NC(=O)[C@@H]2C[C@@H](O)CN2C(=O)[C@@H](NC(=O)CCCCCC(=O)NCCOCCOCCNC(=O)c2ccc3c(c2)c2cn(C)nc2n3-c2ccc(C(F)(F)F)cc2)C(C)(C)C)cc1` [Compound 24, N′-[(2S)-1-[(2S,4R)-4-hydroxy-2-{[(1S)-1-[4-(4-methyl-1,3-thiazol-5-yl)phenyl]ethyl]carbamoyl}pyrrolidin-1-yl]-3,3-dimethyl-1-oxobutan-2-yl]-N-(2-{2-[2-({2-methyl-8-[4-(trifluoromethyl)phenyl]-2H,8H-pyrazolo[3,4-b]indol-5-yl}formamido)ethoxy]ethoxy}ethyl) heptanediamide]: the 50% degradation concentration (DC50) is 700 nM on TEAD1 in SK-HEP1 cells (16 h incubation, read-out: DC50 SK-HEP1 16 h); 700 nM at TEAD1 in SK-HEP1 cells (setting [1]); 100 to 1000 nM at TEAD1 in SK-HEP1 cells (setting [2]); 1000 nM at TEAD1 in NCI-H226 cells (16 h incubation, read-out: DC50 NCI-H226 16 h); 1000 nM on TEAD1 in NCI-H226 cells (setting [3]); 100 to 1000 nM at TEAD1 in NCI-H226 cells (setting [4]).

As for `Cn1cc2c3cc(C(=O)NCCOCCOCCOCCOCCNC(=O)[C@]45CCC(C)(C)C[C@H]4[C@H]4C(=O)C=C6[C@@]7(C)C=C(C#N)C(=O)C(C)(C)[C@@H]7CC[C@@]6(C)[C@]4(C)CC5)ccc3n(-c3ccc(C(F)(F)F)cc3)c2n1` [Compound 33, (4aS,6aR,6bS,8aR,12aS, 14aR, 14bS)-11-cyano-2,2,6a,6b,9,9,12a-heptamethyl-N-[14-({2-methyl-8-[4-(trifluoromethyl)phenyl]-2H,8H-pyrazolo[3,4-b]indol-5-yl}formamido)-3,6,9,12-tetraoxatetradecan-1-yl]-10,14-dioxo-1,2,3,4,4a,5,6,6a,6b,7,8,8a,9,10,12a,14,14a,14b-octadecahydropicene-4a-carboxamide], the DC50 was 650 nM at TEAD1 in SK-HEP1 cells (setting [1]), 100 to 1000 nM at TEAD1 in SK-HEP1 cells (setting [2]), 600 nM on TEAD1 in NCI-H226 cells (setting [3]) and 100 to 1000 nM on TEAD1 in NCI-H226 cells (setting [4]).

As to `Cn1cc2c3cc(C(=O)NCCOCCOCCNC(=O)COc4ccc5c(c4)C(=O)N(C4CCC(=O)NC4=O)C5=O)ccc3n(-c3ccc(C(F)(F)F)cc3)c2n1` (stereo not shown) [Compound 7, 2-{[2-(2,6-dioxopiperidin-3-yl)-1,3-dioxo-2,3-dihydro-1H-isoindol-5-yl]oxy}-N-(2-{2-[2-({2-methyl-8-[4-(trifluoromethyl)phenyl]-2H,8H-pyrazolo[3,4-b]indol-5-yl}formamido)ethoxy]ethoxy}ethyl)acetamide], the DC50 at TEAD1 in SK-HEP1 cells (setting [1]) is 2400 nM; at TEAD1 in SK-HEP1 cells (setting [2]), 1000 to 3000 nM; on TEAD1 in NCI-H226 cells (setting [3]), 20000 nM; on TEAD1 in NCI-H226 cells (setting [4]) it was 9000 to 30000 nM.

Consider `CCNC(=O)[C@H](Cc1ccccc1)NC(=O)[C@@H]1CCCN1C(=O)[C@@H](NC(=O)[C@H](C)NCCCCCCNC(=O)c1ccc2c(c1)c1cn(C)nc1n2-c1ccc(C(F)(F)F)cc1)C1CCCCC1` [Compound 73, (2S)-2-{[(2S)-1-[(2S)-2-cyclohexyl-2-[(2S)-2-{[6-({2-methyl-8-[4-(trifluoro-methyl)phenyl]-2H,8H-pyrazolo[3,4-b]indol-5-yl}formamido)hexyl]amino}-propanamido]acetyl]pyrrolidin-2-yl]formamido}-N-ethyl-3-phenylpropan-amide], for which the DC50 on TEAD1 in SK-HEP1 cells (setting [2]) lay in the range of 3000 to 9000 nM; on TEAD1 in NCI-H226 cells (setting [4]) it was 9000 to 30000 nM.

Consider `Cc1ncsc1-c1ccc(CNC(=O)C2CC(O)CN2C(=O)C(NC(=O)COCCOCCOCCOCCNC(=O)c2ccc3c(c2)c2cn(C)nc2n3-c2ccc(C(F)(F)F)cc2)C(C)(C)C)cc1` (stereo in doubt) [Compound 12, (2S,4R)-1-{(2S)-3,3-dimethyl-2-[14-({2-methyl-8-[4-(trifluoromethyl)phenyl]-2H,8H-pyrazolo[3,4-b]indol-5-yl}formamido)-3,6,9,12-tetraoxatetradecanamido]butanoyl}-4-hydroxy-N-{[4-(4-methyl-1,3-thiazol-5-yl)phenyl]methyl}pyrrolidine-2-carboxamide], for which the DC50 on TEAD1 in SK-HEP1 cells (setting [2]) lay in the range of 100 to 1000 nM; on TEAD1 in NCI-H226 cells (setting [4]), 3000 to 9000 nM.

On to `Cc1ncsc1-c1ccc(CNC(=O)[C@@H]2C[C@@H](O)CN2C(=O)[C@@H](NC(=O)COCCCOCCOCCNC(=O)c2ccc3c(c2)c2cn(C)nc2n3-c2ccc(C(F)(F)F)cc2)C(C)(C)C)cc1` [Compound 74, (2S,4R)-1-[(2S)-3,3-dimethyl-2-[2-(3-{2-[2-({2-methyl-8-[4-(trifluoro-methyl)phenyl]-2H,8H-pyrazolo[3,4-b]indol-5-yl}formamido)ethoxy]-ethoxy}propoxy)acetamido]butanoyl]-4-hydroxy-N-{[4-(4-methyl-1,3-thiazol-5-yl)phenyl]methyl}pyrrolidine-2-carboxamide], for which the DC50 at TEAD1 in SK-HEP1 cells (setting [2]) fell in the range of 100 to 1000 nM; on TEAD1 in NCI-H226 cells (setting [4]), 1000 to 3000 nM.
